# Laboratory results reported in patent US20020111274A1, “1-alkyl-3-[1-(substituted phenyl) benzotriazol-6-yl] uracils” (BASF Aktiengesellschaft, priority 2000, published 2002).
# Experiments:
# ABUTH Velvetleaf [1] = assay: Postemergence herbicidal evaluation, ABUTH; type: in vivo, Abutilon theophrasti, Medic.; set-up: scale not given here; conditions: postemergence spray, rated about two-three weeks after treatment
# In short: (§1)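 Seedlings grown about two weeks were sprayed with compound in 80/20 acetone/water containing 1.0% methylated seed oil, at the equivalent of about 0.006 to 0.400 kg/ha, through a nozzle at 40 psi. Plants were kept in the greenhouse and rated visually about two to three weeks after treatment.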
# AMBEL Ragweed, Common [2] = assay: Postemergence herbicidal evaluation, AMBEL; type: in vivo, Ambrosia artemisifolia, L.; set-up: scale not given here; conditions: postemergence spray, rated about two-three weeks after treatment
# In short: as §1
# CASOB Sicklepod [3] = assay: Postemergence herbicidal evaluation, CASOB; type: in vivo, Cassia obtusifolia, L.; set-up: scale not given here; conditions: postemergence spray, rated about two-three weeks after treatment
# In short: as §1
# [4] = system: CHEAL Lambsquarters, Common; assay: Postemergence herbicidal evaluation, CHEAL; type: in vivo, Chenopodium album, L.; set-up: scale not given here; conditions: postemergence spray, rated about two-three weeks after treatment
# In short: as §1
# ECHOG Barnyardgrass [5] = assay: Postemergence herbicidal evaluation, ECHOG; type: in vivo, Echinochloa crus-galli, (L.) Beau; set-up: scale not given here; conditions: postemergence spray, rated about two-three weeks after treatment
# In short: as §1
# GALAP Galium [6] = assay: Postemergence herbicidal evaluation, GALAP; type: in vivo, Galium aparine; set-up: scale not given here; conditions: postemergence spray, rated about two-three weeks after treatment
# In short: as §1
# [7] = system: IPOHE Morningglory, Ivyleaf; assay: Postemergence herbicidal evaluation, IPOHE; type: in vivo, Ipomoea hederacea, (L.) Jacq.; set-up: scale not given here; conditions: postemergence spray, rated about two-three weeks after treatment
# In short: as §1
# SETVI Foxtail, Green [8] = assay: Postemergence herbicidal evaluation, SETVI; type: in vivo, Setaria viridis, (L.) Beau; set-up: scale not given here; conditions: postemergence spray, rated about two-three weeks after treatment
# In short: as §1
# GLXMAW Soybean, Williams [9] = assay: Postemergence herbicidal evaluation, GLXMAW; type: in vivo, Glycine max, (L.) Merr. cv Williams; set-up: scale not given here; conditions: postemergence spray, rated about two-three weeks after treatment
# In short: as §1
# [10] = system: TRZAWR Wheat, Winter, cv Riband; assay: Postemergence herbicidal evaluation, TRZAWR; type: in vivo, Triticum aestivum; set-up: scale not given here; conditions: postemergence spray, rated about two-three weeks after treatment
# In short: as §1
# ORYSAT Rice, Tebonnet [11] = assay: Postemergence herbicidal evaluation, ORYSAT; type: in vivo, Oryza sativa, (L.); set-up: scale not given here; conditions: postemergence spray, rated about two-three weeks after treatment
# In short: as §1
# ZEAMX Corn, Field [12] = assay: Postemergence herbicidal evaluation, ZEAMX; type: in vivo, Zea mays, L. (Sammel-Bezeichnung); set-up: scale not given here; conditions: postemergence spray, rated about two-three weeks after treatment
# In short: as §1
# ABUTH Velvetleaf [13] = assay: Preemergence herbicidal evaluation, ABUTH; type: in vivo, Abutilon theophrasti, Medic.; set-up: scale not given here; conditions: preemergence
# In short: (§2)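 Compound applied preemergence as an aqueous acetone spray onto freshly planted cups, dose equivalent approx. 0.013 to 0.800 kg/ha. Evaluation by rating at weeks 4–5.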
# AMBEL Ragweed, Common [14] = assay: Preemergence herbicidal evaluation, AMBEL; type: in vivo, Ambrosia artemisifolia, L.; set-up: scale not given here; conditions: preemergence
# In short: as §2
# CASOB Sicklepod [15] = assay: Preemergence herbicidal evaluation, CASOB; type: in vivo, Cassia obtusifolia, L.; set-up: scale not given here; conditions: preemergence
# In short: as §2
# [16] = system: CHEAL Lambsquarters, Common; assay: Preemergence herbicidal evaluation, CHEAL; type: in vivo, Chenopodium album, L.; set-up: scale not given here; conditions: preemergence
# In short: as §2
# ECHOG Barnyardgrass [17] = assay: Preemergence herbicidal evaluation, ECHOG; type: in vivo, Echinochloa crus-galli, (L.) Beau; set-up: scale not given here; conditions: preemergence
# In short: as §2
# GALAP Galium [18] = assay: Preemergence herbicidal evaluation, GALAP; type: in vivo, Galium aparine; set-up: scale not given here; conditions: preemergence
# In short: as §2
# [19] = system: IPOHE Morningglory, Ivyleaf; assay: Preemergence herbicidal evaluation, IPOHE; type: in vivo, Ipomoea hederacea, (L.) Jacq.; set-up: scale not given here; conditions: preemergence
# In short: as §2
# SETVI Foxtail, Green [20] = assay: Preemergence herbicidal evaluation, SETVI; type: in vivo, Setaria viridis, (L.) Beau; set-up: scale not given here; conditions: preemergence
# In short: as §2
# GLXMAW Soybean, Williams [21] = assay: Preemergence herbicidal evaluation, GLXMAW; type: in vivo, Glycine max, (L.) Merr. cv Williams; set-up: scale not given here; conditions: preemergence
# In short: as §2
# [22] = system: TRZAWR Wheat, Winter, cv Riband; assay: Preemergence herbicidal evaluation, TRZAWR; type: in vivo, Triticum aestivum; set-up: scale not given here; conditions: preemergence
# In short: as §2
# ORYSAT Rice, Tebonnet [23] = assay: Preemergence herbicidal evaluation, ORYSAT; type: in vivo, Oryza sativa, (L.); set-up: scale not given here; conditions: preemergence
# In short: as §2
# ZEAMX Corn, Field [24] = assay: Preemergence herbicidal evaluation, ZEAMX; type: in vivo, Zea mays, L. (Sammel-Bezeichnung); set-up: scale not given here; conditions: preemergence
# In short: as §2
compound,measurement,setting,value
"CCc1cccc(-n2nnc3cc(F)c(-n4c(=O)cc(C(F)(F)F)n(C)c4=O)cc32)c1 [Example 29, 3-[1-(3-ethylphenyl)-5-fluoro-1H-1,2,3-benzotriazol-6-yl]-1-methyl-6-(trifluoromethyl)-2,4(1H,3H)-pyrimidinedione]",Postemergence herbicidal rating ABUTH,ABUTH Velvetleaf [1]; 0.008 kg/ha,9.0
same,Postemergence herbicidal rating ABUTH,ABUTH Velvetleaf [1]; 0.016 kg/ha,9.0
same,Postemergence herbicidal rating ABUTH,ABUTH Velvetleaf [1]; 0.032 kg/ha,9.0
same,Postemergence herbicidal rating ABUTH,ABUTH Velvetleaf [1]; 0.062 kg/ha,9.0
same,Postemergence herbicidal rating AMBEL,"AMBEL Ragweed, Common [2]; 0.008 kg/ha",7.0
same,Postemergence herbicidal rating AMBEL,"AMBEL Ragweed, Common [2]; 0.016 kg/ha",7.0
same,Postemergence herbicidal rating AMBEL,"AMBEL Ragweed, Common [2]; 0.032 kg/ha",6.0
same,Postemergence herbicidal rating AMBEL,"AMBEL Ragweed, Common [2]; 0.062 kg/ha",9.0
same,Postemergence herbicidal rating CASOB,CASOB Sicklepod [3]; 0.008 kg/ha,0.0
same,Postemergence herbicidal rating CASOB,CASOB Sicklepod [3]; 0.016 kg/ha,2.0
same,Postemergence herbicidal rating CASOB,CASOB Sicklepod [3]; 0.032 kg/ha,2.0
same,Postemergence herbicidal rating CASOB,CASOB Sicklepod [3]; 0.062 kg/ha,3.0
same,Postemergence herbicidal rating CHEAL,[4]; 0.008 kg/ha,9.0
same,Postemergence herbicidal rating CHEAL,[4]; 0.016 kg/ha,9.0
same,Postemergence herbicidal rating CHEAL,[4]; 0.032 kg/ha,9.0
same,Postemergence herbicidal rating CHEAL,[4]; 0.062 kg/ha,9.0
same,Postemergence herbicidal rating ECHCG,ECHOG Barnyardgrass [5]; 0.008 kg/ha,1.0
same,Postemergence herbicidal rating ECHCG,ECHOG Barnyardgrass [5]; 0.016 kg/ha,1.0
same,Postemergence herbicidal rating ECHCG,ECHOG Barnyardgrass [5]; 0.032 kg/ha,1.0
same,Postemergence herbicidal rating ECHCG,ECHOG Barnyardgrass [5]; 0.062 kg/ha,1.0
same,Postemergence herbicidal rating GALAP,GALAP Galium [6]; 0.008 kg/ha,0.0
same,Postemergence herbicidal rating GALAP,GALAP Galium [6]; 0.016 kg/ha,1.0
same,Postemergence herbicidal rating GALAP,GALAP Galium [6]; 0.032 kg/ha,1.0
same,Postemergence herbicidal rating GALAP,GALAP Galium [6]; 0.062 kg/ha,3.0
same,Postemergence herbicidal rating IPOHE,[7]; 0.008 kg/ha,9.0
same,Postemergence herbicidal rating IPOHE,[7]; 0.016 kg/ha,9.0
same,Postemergence herbicidal rating IPOHE,[7]; 0.032 kg/ha,9.0
same,Postemergence herbicidal rating IPOHE,[7]; 0.062 kg/ha,9.0
same,Postemergence herbicidal rating SETVI,"SETVI Foxtail, Green [8]; 0.008 kg/ha",1.0
same,Postemergence herbicidal rating SETVI,"SETVI Foxtail, Green [8]; 0.016 kg/ha",7.0
same,Postemergence herbicidal rating SETVI,"SETVI Foxtail, Green [8]; 0.032 kg/ha",9.0
same,Postemergence herbicidal rating SETVI,"SETVI Foxtail, Green [8]; 0.062 kg/ha",9.0
same,Postemergence herbicidal rating GLXMAW,"GLXMAW Soybean, Williams [9]; 0.008 kg/ha",5.0
same,Postemergence herbicidal rating GLXMAW,"GLXMAW Soybean, Williams [9]; 0.016 kg/ha",6.5
same,Postemergence herbicidal rating GLXMAW,"GLXMAW Soybean, Williams [9]; 0.032 kg/ha",8.0
same,Postemergence herbicidal rating GLXMAW,"GLXMAW Soybean, Williams [9]; 0.062 kg/ha",8.0
same,Postemergence herbicidal rating TRZAWR,[10]; 0.008 kg/ha,2.0
same,Postemergence herbicidal rating TRZAWR,[10]; 0.016 kg/ha,2.0
same,Postemergence herbicidal rating TRZAWR,[10]; 0.032 kg/ha,2.5
same,Postemergence herbicidal rating TRZAWR,[10]; 0.062 kg/ha,3.0
same,Postemergence herbicidal rating ORYSAT,"ORYSAT Rice, Tebonnet [11]; 0.008 kg/ha",2.0
same,Postemergence herbicidal rating ORYSAT,"ORYSAT Rice, Tebonnet [11]; 0.016 kg/ha",2.0
same,Postemergence herbicidal rating ORYSAT,"ORYSAT Rice, Tebonnet [11]; 0.032 kg/ha",2.0
same,Postemergence herbicidal rating ORYSAT,"ORYSAT Rice, Tebonnet [11]; 0.062 kg/ha",3.0
same,Postemergence herbicidal rating ZEAMX,"ZEAMX Corn, Field [12]; 0.008 kg/ha",3.5
same,Postemergence herbicidal rating ZEAMX,"ZEAMX Corn, Field [12]; 0.016 kg/ha",5.0
same,Postemergence herbicidal rating ZEAMX,"ZEAMX Corn, Field [12]; 0.032 kg/ha",5.0
same,Postemergence herbicidal rating ZEAMX,"ZEAMX Corn, Field [12]; 0.062 kg/ha",5.0
same,ABUTH herbicidal rating,ABUTH Velvetleaf [13]; rate 0.016 kg/ha,6.0
same,ABUTH herbicidal rating,ABUTH Velvetleaf [13]; rate 0.032 kg/ha,9.0
same,ABUTH herbicidal rating,ABUTH Velvetleaf [13]; rate 0.062 kg/ha,9.0
same,ABUTH herbicidal rating,ABUTH Velvetleaf [13]; rate 0.125 kg/ha,9.0
same,AMBEL herbicidal rating,"AMBEL Ragweed, Common [14]; rate 0.016 kg/ha",0.0
same,AMBEL herbicidal rating,"AMBEL Ragweed, Common [14]; rate 0.032 kg/ha",0.0
same,AMBEL herbicidal rating,"AMBEL Ragweed, Common [14]; rate 0.062 kg/ha",3.0
same,AMBEL herbicidal rating,"AMBEL Ragweed, Common [14]; rate 0.125 kg/ha",7.0
same,CASOB herbicidal rating,CASOB Sicklepod [15]; rate 0.016 kg/ha,1.0
same,CASOB herbicidal rating,CASOB Sicklepod [15]; rate 0.125 kg/ha,1.0
same,CHEAL herbicidal rating,[16]; rate 0.016 kg/ha,9.0
same,CHEAL herbicidal rating,[16]; rate 0.032 kg/ha,9.0
same,CHEAL herbicidal rating,[16]; rate 0.062 kg/ha,9.0
same,CHEAL herbicidal rating,[16]; rate 0.125 kg/ha,9.0
same,ECHCG herbicidal rating,ECHOG Barnyardgrass [17]; rate 0.016 kg/ha,2.0
same,ECHCG herbicidal rating,ECHOG Barnyardgrass [17]; rate 0.032 kg/ha,4.0
same,ECHCG herbicidal rating,ECHOG Barnyardgrass [17]; rate 0.062 kg/ha,7.0
same,ECHCG herbicidal rating,ECHOG Barnyardgrass [17]; rate 0.125 kg/ha,7.0
same,GALAP herbicidal rating,GALAP Galium [18]; rate 0.016 kg/ha,0.0
same,GALAP herbicidal rating,GALAP Galium [18]; rate 0.032 kg/ha,0.0
same,GALAP herbicidal rating,GALAP Galium [18]; rate 0.062 kg/ha,1.0
same,GALAP herbicidal rating,GALAP Galium [18]; rate 0.125 kg/ha,8.0
same,IPOHE herbicidal rating,[19]; rate 0.016 kg/ha,0.0
same,IPOHE herbicidal rating,[19]; rate 0.032 kg/ha,3.0
same,IPOHE herbicidal rating,[19]; rate 0.062 kg/ha,6.0
same,IPOHE herbicidal rating,[19]; rate 0.125 kg/ha,7.0
same,SETVI herbicidal rating,"SETVI Foxtail, Green [20]; rate 0.016 kg/ha",6.0
same,SETVI herbicidal rating,"SETVI Foxtail, Green [20]; rate 0.032 kg/ha",9.0
same,SETVI herbicidal rating,"SETVI Foxtail, Green [20]; rate 0.062 kg/ha",9.0
same,SETVI herbicidal rating,"SETVI Foxtail, Green [20]; rate 0.125 kg/ha",9.0
same,GLXMAW herbicidal rating,"GLXMAW Soybean, Williams [21]; rate 0.016 kg/ha",0.0
same,GLXMAW herbicidal rating,"GLXMAW Soybean, Williams [21]; rate 0.032 kg/ha",1.0
same,GLXMAW herbicidal rating,"GLXMAW Soybean, Williams [21]; rate 0.062 kg/ha",4.0
same,GLXMAW herbicidal rating,"GLXMAW Soybean, Williams [21]; rate 0.125 kg/ha",5.0
same,TRZAWR herbicidal rating,[22]; rate 0.016 kg/ha,1.0
same,TRZAWR herbicidal rating,[22]; rate 0.032 kg/ha,1.0
same,TRZAWR herbicidal rating,[22]; rate 0.062 kg/ha,2.0
same,TRZAWR herbicidal rating,[22]; rate 0.125 kg/ha,2.0
same,ORYSAT herbicidal rating,"ORYSAT Rice, Tebonnet [23]; rate 0.016 kg/ha",0.0
same,ORYSAT herbicidal rating,"ORYSAT Rice, Tebonnet [23]; rate 0.032 kg/ha",1.0
same,ORYSAT herbicidal rating,"ORYSAT Rice, Tebonnet [23]; rate 0.062 kg/ha",3.0
same,ORYSAT herbicidal rating,"ORYSAT Rice, Tebonnet [23]; rate 0.125 kg/ha",4.0
same,ZEAMX herbicidal rating,"ZEAMX Corn, Field [24]; rate 0.016 kg/ha",0.0
same,ZEAMX herbicidal rating,"ZEAMX Corn, Field [24]; rate 0.032 kg/ha",2.0
same,ZEAMX herbicidal rating,"ZEAMX Corn, Field [24]; rate 0.062 kg/ha",4.0
same,ZEAMX herbicidal rating,"ZEAMX Corn, Field [24]; rate 0.125 kg/ha",5.0
same,melting point,,52 to 65 °C
